The inhibition is the drop in the measured response relative to a control, in per cent.

From EP2832223A1, “HERBICIDAL COMPOSITION” (Ishihara Sangyo Kaisha, Ltd., priority 2012, dated 2013) come the findings set out here.

Common to all, as to format: in vivo
Experiment [1] has as its system velvetleaf (Abutilon theophrasti Medic.). Briefly: Test Example 16: pot test, soil and foliar treatment, visual growth inhibition. The settings on record: soil treatment and foliar treatment, 29th day after treatment, read-out: Growth inhibition rate (%) of velvetleaf Measured value. The text has this: Upland field soil was put into a 1/1,000,000 ha pot, and seeds of velvetleaf (Abutilon theophrasti Medic.) were sown. When the velvetleaf reached 4.0 to 4.3-leaf stage, seeds of velvetleaf were further sown in the same pot assuming conditions such that weeds would later grow. Three days later, predetermined amounts of ONEHOPE NYUZAI (tradename), Click (tradename), Callisto (tradename), Mikado (tradename), a wettable powder containing bicyclopyrone as an active ingredient and Clio (tradename) were diluted with water in an amount corresponding to 300 L/ha and applied for soil treatment and for foliar treatment by a small sprayer.
On the 29th day after treatment, the state of growth of the velvetleaf was visually observed to determine the growth inhibition rate (%). The growth inhibition rate (%) (measured value) and the growth inhibition rate (%) calculated in the same manner as in the above Test Example 1 are shown in Table 16.

The subject of experiment [2] is sunn-hemp (Crotalaria juncea L.). In words: Test Example 7: pot test, soil treatment, visual growth inhibition. The settings on record: soil treatment, 28th day after treatment, read-out: Growth inhibition rate (%) of sunn-hemp Measured value. The procedure: Upland field soil was put into a 1/300,000 ha pot, and seeds of sunn-hemp (Crotalaria juncea L.) were sown. On the next day, predetermined amounts of ONEHOPE NYUZAI (tradename), Click (tradename), Mikado (tradename) and a wettable powder containing bicyclopyrone prepared in accordance with a conventional formulation method were diluted with water (in an amount corresponding to 1,000 L/ha) and applied for soil treatment by a small sprayer.
On the 28th day after treatment, the state of growth of the sunn-hemp was visually observed to determine the growth inhibition rate (%). The growth inhibition rate (%) (measured value) and the growth inhibition rate (%) calculated in the same manner as in the above Test Example 1 are shown in Table 7.

Experiment [3] has as its system common cocklebur (Xanthium strumarium L.). Briefly: Test Example 1: pot test, foliar treatment, visual growth inhibition. The settings on record: foliar treatment at 4.3 to 4.8-leaf stage, 22nd day after treatment, read-out: Growth inhibition rate (%) of common cocklebur Measured value. The text has this:
In the present invention, a synergistic effect means a higher herbicidal activity of three active ingredients combined, than the simple sum of the respective herbicidal activities of the three active ingredients (the expected activity). The activity expected by the combination of three active ingredients can be calculated as follows (Colby S.R., "Weed", vol. 15, p. 20-22, 1967). […] Upland field soil was put into a 1/300,000 ha pot, and seeds of common cocklebur (Xanthium strumarium L.) were sown. […] Click, manufactured by BASF) and EC formulation containing dimethenamid-P as an active ingredient (tradename: Spectrum, manufactured by BASF) were diluted with water (in an amount corresponding to 1,000 L/ha) and applied for foliar treatment by a small sprayer. On the 22nd day after treatment, the state of growth of the common cocklebur was visually observed to determine the growth inhibition rate (%) in accordance with the following evalution standard. The growth inhibition rate (%) (measured value) and the growth inhibition rate (%) (calculated value) calculated by the Colby's formula are shown in Table 1.

Consider `COc1cc(OC)nc(NC(=O)NS(=O)(=O)c2ncccc2C(=O)N(C)C)n1` [Nicosulfuron, 2-(4,6-dimethoxypyrimidin-2-ylcarbamoylsulfamoyl)-N,N-dimethylnicotinamide], for which the inhibition at 30 g/ha in experiment [1] (30 g/ha) and in experiment [3] (30 g/ha) was 0% in each case. In addition, in experiment [2] (100 g/ha), the inhibition at 100 g/ha worked out at 40%.

Consider `CCNc1nc(Cl)nc(NC(C)(C)C)n1` [Terbuthylazine, N^2-tert-butyl-6-chloro-N^4-ethyl-1,3,5-triazine-2,4-diamine], for which the values for the inhibition at 500 g/ha in experiment [1] (500 g/ha) and in experiment [3] (500 g/ha) were 15% and 10%, respectively. Besides, the inhibition at 1000 g/ha in experiment [1] (1000 g/ha) came out at 18%. Further, the inhibition at 200 g/ha in experiment [2] (200 g/ha) worked out at 30%.
